Test results from US20240216338A1, “NEW FORMULATIONS AND USES” (ALZECURE PHARMA AB, priority 2021, published 2024).
Where two headings read alike, the source gives them in different places. Where no end group is shown, it is not given here.

How the values were obtained:
mice = details: topical, WO 2018/048779; cited from earlier work
healthy volunteers [1] = test: tolerability in the clinical study; details: normal skin, skin with a compromised barrier function and inflamed skin
healthy volunteers [2] = details: for Cohen's d, VAS (0-5 min): Capsaicin, 95 mg oral vs placebo
healthy volunteers [3] = test: VAS-Pain (post-laser pain); type: in vivo, human; details: for Mean (LEP induced VAS pain): n=24; for VAS Mean Difference: topical, difference from placebo, day 4 (AUC)
Procedure: (§1) At Day 1, Areas 1-4 were treated with 1 ml of the Compound 1 Gel (0.05 ml/cm^2) or placebo and were tested for changes in LEP-amplitudes and Visual Analog Scale Rating of Pain (VAS-P). Assessments were performed before and after (investigational medicinal product) IMP application. At Days 2 and 3, LEPs and VAS-P assessments will also be performed before and 1 h after the second and third application of IMP at the same time as on Day 1 (±1 h). At test Day 4, LEPs and VAS-P were evaluated for areas 1-4 at 1, 6 and 9 h after the 4th IMP application.
At the 2 h time point on Day 4, skin areas 5 and 6 will be UVR irradiated with 2 MED. LEPs, VAS-P, erythema (by skin reflection spectrometry (SRS)) and pin prick hyperalgesia (by weighted needle threshold (WNT)) were evaluated before and 1, 2, 3, 6 and 9 h after UVR. At the same time points, anti-inflammatory effects on the areas of UVR will be evaluated by SRS with the a-value being the measure of “redness”. Subjects returned on Day 5 for the 5th IMP application. One hour after IMP application and 24±1 h after UVR, LEPs and VAS-Pain were evaluated on areas 1-6. In addition, erythema (SRS) and pin prick hyperalgesia (WNT) were evaluated on areas 5 and 6. Subjects returned for a follow-up visit at Day 9 (±1).
VAS-Pain is a subjective assessment of pain, which was used for all skin conditions. Electronic nociceptive scoring with electronic 100-mm visual analog scales (VASs) for post-laser pain (VAS-P) was assessed on a tablet PC, which allowed the subject to discriminate pain severity between no pain and strong pain using a 0 to 100 mm scale. The measurements were taken after each laser session—summarizing the overall impression of the “painfulness” of the whole session.
The statistical analysis was based on the evaluation of treatment related differences at the individual time points and comparison of the AUC (Area Under the Curve) parameter derived from the efficacy endpoints.
The timepoints to be included in the calculation of the AUC depended on the objective. • 1. For evaluating objective a) and b) (treatment areas 1-4), two AUC calculations were used • a. All evaluations at 1 h after IMP application at Days 1-5, the assessment at predose on Day 1 served as reference. • b. Evaluations at all timepoints at Day 4 and before IMP application on Day 5 • 2. For evaluating objective c) and d) all timepoints at Day 4 and the assessments before IMP application on Day 5 will be included in the calculation of the AUC related to treatment areas (treatment area 5 and 6).
Those parameters were analysed using a linear mixed regression model. The regression included the classification variable treatment (A1, A2, B1 and B2 resp. A3 and B3) and the corresponding baseline value (pre dose measurement on normal skin) as fixed effects and the intercept over the subjects as a random effect.
All treatment differences with 95% confidence intervals were estimated from this model. The null-hypotheses that these differences are equal to zero (no difference between active treatments and placebo) were tested at the 5% level against the two-sided alternatives.
Data used from study described in Example 2 for calculating Cohen's D were taken at the 1, 6 and 9 hour time points on day 4 of the study and are shown in the table below. The standard deviation (SD) was derived from the standard error (SE) taking into account the sample size of n=24.

healthy volunteers [4] = test: Laser algesimetry, laser evoked potentials (LEP), N2-P2 Peak-to-Peak amplitude; type: in vivo, human; details: for PtP Mean Difference: topical, difference from placebo, day 4 (AUC)
Procedure: Healthy volunteers were screened for eligibility from Day −28 to Day −2 before first treatment. During screening also, a training session (without study medication) was performed in order to introduce subjects to the testing and rating procedures. Prior to testing the laser evoked potentials (LEPs) from healthy skin, the individual Laser Pain Threshold (LPT) was be determined for each volunteer.
as §1
At the 2 h time point on Day 4, skin areas 5 and 6 will be UVR irradiated with 2 MED. LEPs, VAS-P, erythema (by skin reflection spectrometry (SRS)) and pin prick hyperalgesia (by weighted needle threshold (WNT)) were evaluated before and 1, 2, 3, 6 and 9 h after UVR. At the same time points, anti-inflammatory effects on the areas of UVR will be evaluated by SRS with the a-value being the measure of “redness”. […] One hour after IMP application and 24±1 h after UVR, LEPs and VAS-Pain were evaluated on areas 1-6. In addition, erythema (SRS) and pin prick hyperalgesia (WNT) were evaluated on areas 5 and 6. […]
Laser algesimetry is an experimental induction of pain by means of a contact-free thermo-nociceptive laser beam with a constant short duration (ms) and individually adjusted intensity above the pain threshold (determined at Screening). Objective and quantitative measurement of nociception is accomplished by the analysis of the contingent vertex EEG event-related potentials (somatosensory/radiant heat ERPs).
The study effects of the study medications (the Compound 1 Gel and placebo) were measured as a reduction in the PtP amplitude. […]

[5] = tested on: patients undergoing surgical removal of a mandibular third molar; test: Molar extraction study (legacy), oral AZD1386, pain intensity VAS; type: in vivo, human; details: 95 mg oral vs placebo
Procedure: This was a single dose, randomised, double-blind, double dummy, placebo- and Naproxen controlled study to investigate the analgesic efficacy of AZD1386 95 mg in patients undergoing surgical removal of a partially or completely impacted mandibular third molar, where bone removal was judged to be needed. Naproxen 500 mg was included as a treatment arm, for assay sensitivity only.
Patients requesting pain relief, due to pain from the dental surgical area, within 6 hours after the end of the administration of the local anaesthetic (last anaesthetic dose) were randomised to 1 of 3 treatment arms: 40 patients received AZD1386 95 mg oral solution and Naproxen placebo capsule, 40 patients received AZD1386 placebo oral solution and Naproxen placebo capsule and 23 patients received AZD1386 placebo oral solution and Naproxen 500 mg (for assay sensitivity only). A visual Analogue Scale (VAS) was used for the assessment of pain intensity and pain on jaw movement. The VAS consists of an ungraduated 100 mm horizontal line with the left end (0 mm) marked “No pain” and the right end (100 mm) marked “Worst pain imaginable”. The patient indicated his/her present pain intensity and pain on jaw movement by drawing a vertical line across the scale on paper CRF pages. The pain intensity was rated by the patients immediately prior to administration of the investigational product, and subsequent assessments were performed at 15 min, 30 min, 45 min, 1 h, 1 h15 min, 1 h30 min, 1 h45 min, 2 h, 2 h30 min, 3 h, 4 h, 5 h, 6 h, 7 h, and 8 h after the start of administration of the investigational product.

[6] = oral medication; Quiding et al. PAIN 154 (2013); cited from earlier work
healthy volunteers [7] = details: difference from placebo, cited from earlier work
healthy volunteers [8] = details: difference from placebo, cited from earlier work; remark: listed apart in the source
[9] = Duloxetin 60 mg (oral), Schaffler et al. (2017)
[10] = Etoricoxib 90 mg (oral), Schaffler et al. (2013)
[11] = Lacosamide 60 mg (oral), Schaffler et al. (2017)
[12] = Pregabalin 150 mg (oral), Schaffler et al. (2017)
[13] = Tramadol 100 mg (oral), Schaffler et al. (2013)

Compound: CC(C)(C)c1ccc(/C=C/C(=O)Nc2ccc3c(c2)OCCO3)cc1 [AMG9810]
- capsaicin-induced wound licking (mice): reduced

Compound: C[C@H](NC(=O)Cn1cnc2ccc(F)c(F)c21)c1ccc(C(C)(C)C)cc1 [Compound 1]
- tolerability (healthy volunteers [1]): well tolerated
- Cohen's d, VAS (0-5 min) (healthy volunteers [2]; 01:08 h after IMP): 0.04
- Cohen's d, VAS (0-5 min) (healthy volunteers [2]; 01:38 h after IMP, listed as AZD1386): 0.3
- Cohen's d, VAS (0-5 min) (healthy volunteers [2]; 02:38 h after IMP): 0.06
- Cohen's d, VAS (0-5 min) (healthy volunteers [2]; 03:38 h after IMP): 0.22
- Cohen's d, VAS (0-5 min) (healthy volunteers [2]; 05:08 h after IMP): 0.15
- time of significant analgesic effects after oral administration (healthy volunteers [2]; oral, consistent across the two legacy studies): 1 to 1.5 h
- Mean (LEP induced VAS pain) (healthy volunteers [3]; Day 4, 1 h, Normal skin): 32.63 mm
- Mean (LEP induced VAS pain) (healthy volunteers [3]; Day 4, 1 h, Optimized skin): 22.56 mm
- Mean (LEP induced VAS pain) (healthy volunteers [3]; Day 4, 6 h, Normal skin): 32.41 mm
- Mean (LEP induced VAS pain) (healthy volunteers [3]; Day 4, 6 h, Optimized skin): 28.01 mm
- Mean (LEP induced VAS pain) (healthy volunteers [3]; Day 4, 9 h, Normal skin): 35.64 mm
- Mean (LEP induced VAS pain) (healthy volunteers [3]; Day 4, 9 h, Optimized skin): 32.27 mm
- VAS Mean Difference (healthy volunteers [3]; normal skin): 13.2 mm
- VAS Mean Difference (healthy volunteers [3]; optimised skin): 18.7 mm
- PtP Mean Difference (healthy volunteers [4]; normal skin): 6.8 μV
- analgesic effects of topical treatment (healthy volunteers [4]; normal, optimized and UVR inflamed skin): highly superior to placebo
- PtP Mean Difference (healthy volunteers [4]; optimised skin): 9.1 μV
- Cohen's d, VAS (vs basel.) ([5]; 01:00 h after IMP): 0.66
- Cohen's d, VAS (vs basel.) ([5]; 01:30 h after IMP): 0.12
- Cohen's d, VAS (vs basel.) ([5]; 02:30 h after IMP): in favour
- Cohen's d, VAS (vs basel.) ([5]; 03:00 h after IMP): in favour
- Cohen's d, VAS (vs basel.) ([5]; 04:00 h after IMP): in favour
- Cohen's d, VAS (vs basel.) ([5]; 05:00 h after IMP): in favour
- Cohen's d, VAS (vs basel.) ([5]; 06:00 h after IMP): in favour
- liver enzymes [6]: elevations in liver enzymes

Compound: CNCC[C@H](Oc1cccc2ccccc12)c1cccs1 [Duloxetin]
- PtP Mean Difference (healthy volunteers [7]; [9]): 1.7 μV
- VAS Mean Difference (healthy volunteers [8]; [9]): 2.2 mm

Compound: Cc1ccc(-c2ncc(Cl)cc2-c2ccc(S(C)(=O)=O)cc2)cn1 [Etoricoxib]
- PtP Mean Difference (healthy volunteers [7]; [10]): 0.2 μV
- VAS Mean Difference (healthy volunteers [8]; [10]): 1.2 mm

Compound: COC[C@@H](NC(C)=O)C(=O)NCc1ccccc1 [Lacosamide]
- PtP Mean Difference (healthy volunteers [7]; [11]): 0.5 μV
- VAS Mean Difference (healthy volunteers [8]; [11]): 2.1 mm

Compound: CC(C)C[C@H](CN)CC(=O)O [Pregabalin]
- PtP Mean Difference (healthy volunteers [7]; [12]): 2.7 μV
- VAS Mean Difference (healthy volunteers [8]; [12]): 9.1 mm

Compound: COc1cccc(C2(O)CCCCC2CN(C)C)c1 (centres unmarked) [Tramadol]
- PtP Mean Difference (healthy volunteers [7]; [13]): 4.5 μV
- VAS Mean Difference (healthy volunteers [8]; [13]): 7.1 mm

Compound: QRFSR [opiorphin]
- capsaicin-induced wound licking (mice): reduced
